The test system of the assay is E. coli 12140. Put plainly: In vivo mouse protection, E. coli 12140. As to conditions: Escherichia coli, po, E. coli 12140, p.o. The text has this:
Compound names corresponding to numbers are given in the experimental section. For comparative purposes, data for cephamandole, which is 7-mandelamido-3-(1-methyltetrazol-5-ylthiomethyl)-3-cephem-4-carboxylic acid, is also given in Tables 1 and 2.

One may read the ED50 as the dose at which the effect has come halfway, by size or by number of responders. The low end stands for greater potency, the high end for weaker potency.

The structures appear in SMILES notation.

As to `N[C@@H](C(=O)NC1C(=O)N2C(C(=O)O)=C(CSc3nnnn3CC(=O)O)CS[C@H]12)c1ccc(O)cc1` (stereo partly drawn) [II, 7-(D-α-Amino-4-hydroxyphenylacetamido)-3-(1-carboxymethyl-tetrazol-5-ylthiomethyl)-3-cephem-4-carboxylic acid], the ED50 was 200 mg/kg.

The values are drawn from US4286089A, “7-Acyl-3-(substituted tetrazolyl thiomethyl)cephalosporins” (SmithKline Corporation, priority 1974, dated 1981).
